Measured values as given in patent US4296112A, “Cephalosporins” (Mitsui Toatsu Chemicals, Inc., priority 1979, dated 1981).
Like-named read-outs stand apart in the source and are kept apart here.

Assays:
[1] = tested on: Bacillus cereus (IAM 1792); assay: MIC, agar plate dilution (Referential Example 1, Table 1); type: cell-based; details: IAM1792, HIA medium plate, 37° C., 18 hours, read-out: Minimum growth inhibitory concentration (MIC)
Method: (§1) The antibacterial activities of the cephalosporins of this invention were measured using the sodium salts of the compounds obtained in Synthesis Examples 1 and 2. The procedure and the results are shown in Referential Example 1.
(§2) Carbenicillin sodium salt (CB-PC) and cephazoline sodum salt (CEZ) were used as controls.
(§3) The antibacterial activities of the test compounds against various Gram-positive and Gram-negative bacteria were determined in a customary manner by the minimum growth inhibitory concentration method (MIC method).
(§4) The experimental procedure was as follows:
(§5) A commercially available heart infusion agar medium (to be abbreviated HIA medium) was used as an assay medium, and a commercially available trypto-soy bouillon medium (to be abbreviated TSB) was used as a medium for the growth of test bacterial strains.
(§6) The test compound was diluted with the melted HIA medium to 100 μg/ml as a maximum concentration, and then serially diluted double. The dilutions were poured into sterilized Petri dishes respectively and allowed to cool and solidify to prepare plates containing the test compound.
(§7) The test bacterial strain was cultivated at 37° C. for 18 to 24 hours in the TSB medium. The culture broth was diluted to 50 to 500 times with a freshly prepared TSB culture medium, and one platinum loopful of the dilution was inoculated in each of the plates containing the test compound.

[2] = tested on: Citrobacter freundii (F-34); assay: as above; type: cell-based; details: HIA medium plate, 37° C., 18 hours, read-out: Minimum growth inhibitory concentration (MIC)
Method: as §1, §2, §3, §4, §5, §6, §7

[3] = tested on: Enterobacter aerogenes (IFO 3320); assay: as above; type: cell-based; details: Klebsiella aerogenes, read-out: Minimum growth inhibitory concentration (MIC)
Method: as §1, §2, §3, §4, §5, §6, §7

[4] = tested on: Enterobacter cloacae (D-49); assay: as above; type: cell-based; details: HIA medium plate, 37° C., 18 hours, read-out: Minimum growth inhibitory concentration (MIC)
Method: as §1, §2, §3, §4, §5, §6, §7

[5] = tested on: Escherichia coli (14H114); assay: as above; type: cell-based; details: HIA medium plate, 37° C., 18 hours, read-out: Minimum growth inhibitory concentration (MIC)
Method: as §1, §2, §3, §4, §5, §6, §7

Escherichia coli (26RO3) = assay: as above; type: cell-based; details: HIA medium plate, 37° C., 18 hours, read-out: Minimum growth inhibitory concentration (MIC)
Method: as §1, §2, §3, §4, §5, §6, §7

Escherichia coli (K-12) = assay: as above; type: cell-based; details: HIA medium plate, 37° C., 18 hours, read-out: Minimum growth inhibitory concentration (MIC)
Method: as §1, §2, §3, §4, §5, §6, §7

Escherichia coli (NIHJ) = assay: as above; type: cell-based; details: HIA medium plate, 37° C., 18 hours, read-out: Minimum growth inhibitory concentration (MIC)
Method: as §1, §2, §3, §4, §5, §6, §7

[6] = tested on: Klebsiella pneumonia (F-5089); assay: as above; type: cell-based; details: Klebsiella pneumoniae; HIA medium plate, 37° C., 18 hours; read-out: Minimum growth inhibitory concentration (MIC)
Method: as §1, §2, §3, §4, §5, §6, §7

[7] = tested on: Klebsiella pneumoniae (ATCC 10031); assay: as above; type: cell-based; details: read-out: Minimum growth inhibitory concentration (MIC)
Method: as §1, §2, §3, §4, §5, §6, §7

[8] = tested on: Klebsiella pneumoniae (B-172); assay: as above; type: cell-based; details: HIA medium plate, 37° C., 18 hours, read-out: Minimum growth inhibitory concentration (MIC)
Method: as §1, §2, §3, §4, §5, §6, §7

[9] = tested on: Klebsiella pneumoniae (Horino); assay: as above; type: cell-based; details: HIA medium plate, 37° C., 18 hours, read-out: Minimum growth inhibitory concentration (MIC)
Method: as §1, §2, §3, §4, §5, §6, §7

Proteus morganii (C-39) = assay: as above; type: cell-based; details: Morganella morganii; HIA medium plate, 37° C., 18 hours; read-out: Minimum growth inhibitory concentration (MIC)
Method: as §1, §2, §3, §4, §5, §6, §7

Proteus rettgeri (T-2) = assay: as above; type: cell-based; details: Providencia rettgeri; HIA medium plate, 37° C., 18 hours; read-out: Minimum growth inhibitory concentration (MIC)
Method: as §1, §2, §3, §4, §5, §6, §7

Proteus vulgaris (OX-19) = assay: as above; type: cell-based; details: read-out: Minimum growth inhibitory concentration (MIC)
Method: as §1, §2, §3, §4, §5, §6, §7

[10] = tested on: Pseudomonas aeruginosa (395); assay: as above; type: cell-based; details: HIA medium plate, 37° C., 18 hours, read-out: Minimum growth inhibitory concentration (MIC)
Method: as §1, §2, §3, §4, §5, §6, §7

[11] = tested on: Pseudomonas aeruginosa (718); assay: as above; type: cell-based; details: HIA medium plate, 37° C., 18 hours, read-out: Minimum growth inhibitory concentration (MIC)
Method: as §1, §2, §3, §4, §5, §6, §7

[12] = tested on: Pseudomonas aeruginosa (ATCC 10145); assay: as above; type: cell-based; details: ATCC10145, HIA medium plate, 37° C., 18 hours, read-out: Minimum growth inhibitory concentration (MIC)
Method: as §1, §2, §3, §4, §5, §6, §7

[13] = tested on: Pseudomonas aeruginosa (F1629); assay: as above; type: cell-based; details: HIA medium plate, 37° C., 18 hours, read-out: Minimum growth inhibitory concentration (MIC)
Method: as §1, §2, §3, §4, §5, §6, §7

[14] = tested on: Pseudomonas aeruginosa (IFO-3901); assay: as above; type: cell-based; details: IFO3901, HIA medium plate, 37° C., 18 hours, read-out: Minimum growth inhibitory concentration (MIC)
Method: as §1, §2, §3, §4, §5, §6, §7

[15] = tested on: Pseudomonas aeruginosa (NCTC 7244); assay: as above; type: cell-based; details: NCTC7244, HIA medium plate, 37° C., 18 hours, read-out: Minimum growth inhibitory concentration (MIC)
Method: as §1, §2, §3, §4, §5, §6, §7

[16] = tested on: Pseudomonas aeruginosa (S-1); assay: as above; type: cell-based; details: HIA medium plate, 37° C., 18 hours, read-out: Minimum growth inhibitory concentration (MIC)
Method: as §1, §2, §3, §4, §5, §6, §7

[17] = tested on: Pseudomonas maltophilia (F-6257); assay: as above; type: cell-based; details: Stenotrophomonas maltophilia; HIA medium plate, 37° C., 18 hours; read-out: Minimum growth inhibitory concentration (MIC)
Method: as §1, §2, §3, §4, §5, §6, §7

[18] = tested on: Salmonella enteritidis (KB-21); assay: as above; type: cell-based; details: Salmonella enterica, 18 h, read-out: Minimum growth inhibitory concentration (MIC)
Method: as §1, §2, §3, §4, §5, §6, §7

[19] = tested on: Serratia marcescens (S-33); assay: as above; type: cell-based; details: HIA medium plate, 37° C., 18 hours, read-out: Minimum growth inhibitory concentration (MIC)
Method: as §1, §2, §3, §4, §5, §6, §7

Shigella flexneri (K-A) = assay: as above; type: cell-based; details: HIA medium plate, 37° C., 18 hours, read-out: Minimum growth inhibitory concentration (MIC)
Method: as §1, §2, §3, §4, §5, §6, §7

[20] = tested on: Staphylococcus aureus (FDA 209P); assay: as above; type: cell-based; details: FDA209P, read-out: Minimum growth inhibitory concentration (MIC)
Method: as §1, §2, §3, §4, §5, §6, §7

[21] = tested on: Staphylococcus aureus (Y-8); assay: as above; type: cell-based; details: HIA medium plate, 37° C., 18 hours, read-out: Minimum growth inhibitory concentration (MIC)
Method: as §1, §2, §3, §4, §5, §6, §7

[22] = tested on: Streptococcus faecalis (Hoshi); assay: as above; type: cell-based; details: Enterococcus faecalis; HIA medium plate, 37° C., 18 hours; read-out: Minimum growth inhibitory concentration (MIC)
Method: as §1, §2, §3, §4, §5, §6, §7

[23] = tested on: Pseudomonas aeruginosa (NCTC 7244); assay: MIC in HIB medium by turbidity (Referential Example 2, Table 2); type: cell-based; details: NCTC7244, 18 h, 37° C.
Method: (§8) The compounds obtained in Synthesis Examples 1 to 4 were tested in the following manner.
(§9) A suspension of Pseudomonas aeruginosa (NCTC 7244) cultivated at 37° C. for 18 hours in a heart infusion broth medium (HIB medium) in a final amount of 10^5, 10^6 and 10^7 cells/ml in an HIB medium containing each of the test compounds which was obtained in the same way as in Referential Example 1 except that the maximum concentration of the test compound was 200 μg/ml. The bacterial strain was cultivated at 37° C. for 18 hours, and the turbidity of the culture broth was evaluated with the naked eye. The minimum concentration of the test compound at which no turbidity was noted was defined as MIC.

[24] = tested on: Pseudomonas aeruginosa (NCTC 7244); assay: Minimum bactericidal concentration (Referential Example 2, Table 2); type: cell-based; details: NCTC7244, 18 h, subculture on HIA medium
Method: as §8, §9
The growth of the bacterial strain was evaluated.

Pseudomonas aeruginosa = details: background art, in words; cited from earlier work
[25] = tested on: Gram-positive or Gram-negative bacteria; details: background art, in words; cited from earlier work
[26] = HIA medium plate, 37° C., 18 hours

Row | Compound | MIC [1] [µg/mL] | MIC [2] [µg/mL] | MIC [4] [µg/mL] | MIC [5] [µg/mL] | MIC (Escherichia coli (26RO3)) [µg/mL] | MIC (Escherichia coli (K-12)) [µg/mL] | MIC (Escherichia coli (NIHJ)) [µg/mL] | MIC [6] [µg/mL] | MIC [8] [µg/mL] | MIC [9] [µg/mL] | MIC (Proteus morganii (C-39)) [µg/mL] | MIC (Proteus rettgeri (T-2)) [µg/mL] | MIC [10] [µg/mL] | MIC [11] [µg/mL] | MIC [12] [µg/mL] | MIC [13] [µg/mL] | MIC [14] [µg/mL] | MIC [15] [µg/mL] | MIC [16] [µg/mL] | MIC [17] [µg/mL] | further results
1 | Cc1nnc(SCC2=C(C(=O)O)N3C(=O)[C@@H](NC(=O)Cn4cnnn4)[C@H]3SC2)s1 [CEZ, sodium 7-[1-(1H)-tetrazoylacetamido]-3-[2-(5-methyl-1,3,4thiadiazoyl)-thiomethyl]-Δ^3-cephem-4-carboxylate] | 100 | 50 | > 100 | 6.25 | 50 | 3.13 | 3.13 | 3.13 | 3.13 | 3.13 | > 100 | 12.5 | > 100 | > 100 | > 100 | > 100 | > 100 | > 100 | > 100 | > 100 | MIC ([3]; IFO3320, HIA medium plate, 37° C., 18 hours): 3.13 µg/mL; MIC ([7]; ATCC10031, 18 h): 1.56 µg/mL; MIC (Proteus vulgaris (OX-19); 18 h): 1.56 µg/mL; MIC [18]: 1.56 µg/mL; MIC [19]: > 100 µg/mL; MIC (Shigella flexneri (K-A)): 1.56 µg/mL; MIC [20, 26]: 0.2 µg/mL; MIC [21]: 0.78 µg/mL; MIC [22]: 25 µg/mL; MIC ([23]; 10^5 cells/ml inoculated): > 200 µg/mL; MIC ([23]; 10^6 cells/ml inoculated): > 200 µg/mL; MIC ([23]; 10^7 cells/ml inoculated): > 200 µg/mL; MBC ([24]; 10^5 cells/ml inoculated): > 200 µg/mL; MBC ([24]; 10^6 cells/ml inoculated): > 200 µg/mL; MBC ([24]; 10^7 cells/ml inoculated): > 200 µg/mL; effectiveness for infections caused by Pseudomonas aeruginosa (Pseudomonas aeruginosa): ineffective for infections caused by Pseudomonas aeruginosa; effectiveness for infections caused by Gram-positive or Gram-negative bacteria [25]: effective as therapeutic agents for infections caused by Gram-positive or Gram-negative bacteria
2 | CC1(C)S[C@@H]2[C@H](NC(=O)C(C(=O)O)c3ccccc3)C(=O)N2[C@H]1C(=O)O (stereo partly drawn) [CB-PC, disodium-α-carboxybenzyl penicillin] | 100 | 3.13 | > 100 | > 100 | 3.13 | 6.25 | 6.25 | 50 | 25 | 100 | 6.25 | 3.13 | 25 | > 100 | > 100 | > 100 | 100 | 100 | 25 | 25 | MIC ([3]; IFO3320, 18 h): 1.56 µg/mL; MIC ([7]; ATCC10031, HIA medium plate, 37° C., 18 hours): > 100 µg/mL; MIC (Proteus vulgaris (OX-19); [26]): 6.25 µg/mL; MIC [18]: 1.56 µg/mL; MIC [19]: 6.25 µg/mL; MIC (Shigella flexneri (K-A)): 1.56 µg/mL; MIC ([20]; 18 h): 1.56 µg/mL; MIC [21]: 12.5 µg/mL; MIC [22]: 50 µg/mL; MIC ([23]; 10^5 cells/ml inoculated): 50 µg/mL; MIC ([23]; 10^6 cells/ml inoculated): 100 µg/mL; MIC ([23]; 10^7 cells/ml inoculated): 200 µg/mL; MBC ([24]; 10^5 cells/ml inoculated): 100 µg/mL; MBC ([24]; 10^6 cells/ml inoculated): 100 µg/mL; MBC ([24]; 10^7 cells/ml inoculated): > 200 µg/mL; activity on Pseudomonas aeruginosa (Pseudomonas aeruginosa): low activity on Pseudomonas aeruginosa; effectiveness for infections caused by Pseudomonas aeruginosa (Pseudomonas aeruginosa): ineffective for Pseudomonas aeruginosa-induced infections of difficultly curable nature
